Data on 7 compounds can be found in paper PMC9609692, “Alternative Methotrexate Oral Formulation: Enhanced Aqueous Solubility, Bioavailability, Photostability, and Permeability” (Pharmaceutics, 2022).

Data set [1] in a line: Phase solubility study of MTX in cyclodextrin solutions. Type of data set: physicochemical. The following applies: MTX with the cyclodextrin, aqueous solution, 25 °C, 1:1 complex. As to the method:
The degree of complexation between MTX and β-CDs was determined through phase solubility experiments, as established by Higuchi and Conners. Briefly, an excess of MTX was added to the 10 mL aqueous solution of increasing concentrations (0 to 15 mM) containing each of β-CD, HP-β-CD, M-β-CD, and DM-β-CD. The samples tubes were then vortexed for a few seconds and placed in a water bath maintained at 100 rpm in 25 °C for 5 days (Maxturdy-30; Daihan Scientific, Wonju, Korea) to obtain the saturated complex suspension. The suspension samples obtained were then centrifuged at 10,000 rpm for 10 min and the supernatant was collected, and filtered using a 0.45 µm syringe filter. The samples were then diluted with a mobile phase to obtain the suitable concentrations before being quantified using a HPLC system. All concentrations were made in triplicate (n = 3).
The outcomes of the phase solubility tests were plotted against the known CD and MTX concentration in the sample and the resulting regression profiles was used to derive the association constant (Kα). The apparent association constant (Kα) was calculated from the phase solubility curve according to the following equation:(1) Kα=D :CD/D×CD=Slope/So1−Slope
The complexation efficiency (CE) of the IC system was calculated from the Slope of the phase solubility profiles. (2) CE=D :CD/CD=So×Kα=Slope/1−Slope

The subject of data set [2] is Caco-2 cells. More on the design: method as in PMID 29498663, PMID 31761193. The conditions noted are these: read-out: half-maximal inhibitory concentration (IC50) against Caco-2 cells; cited from earlier work.
A short description of data set [3]: Particle size distribution by laser diffraction. Type of data set: physicochemical. The conditions noted are these: powder. The procedure: The complete particle size distribution of free MTX powder and all four MTX-CD IC formulations was investigated by laser diffraction (Mastersizer 3000; Malvern Instruments, Malvern, UK). The particle size/distribution is expressed as Dx10, Dx50, and Dx90, taken from the cumulative distribution, where the particle diameters are measured at the 10th, 50th, and 90th percentiles, respectively. The experiments were performed in triplicate.

Data set [4] is described as follows: In vivo pharmacokinetic study after oral administration. More on the design: species or system Sprague-Dawley rats. The following applies: rats, equiv. 20 mg/kg MTX, n = 6. As to the method:
To assess the in vivo pharmacokinetic parameters of free MTX and MTX-CD IC formulations, 30 male Sprague-Dawley rats (6–8 weeks old, weighing 280 ± 20 g) were used (Nara Biotech., Seoul, Korea). All the animals were fed with a normal laboratory diet and water and left for acclimatization in a laboratory environment for 3 days at 23–25 °C/50–55% RH. Care and handling of animals complied with the provisions of guidelines defined and agreed upon by the Institutional Animal Care and Use Committee at the Kyungpook National University (permit number. 2019-0054).
Before the experiment, the animals were divided into five groups with 6 animals per group and made to fast overnight. Each rat, anesthetized with ether, was fixed on a surgical board in the supine position by a thread. A polyethylene tube containing 50 IU/mL of heparin in saline was inserted into the right femoral artery of the rat for cannulation. Then, either 1 mL aqueous suspension of free MTX or the four MTX-CD IC formulations (Equiv. to 20 mg/kg of MTX) was administered orally to each of the rats using oral gavage. Blood samples (~0.3 mL) were drawn from the planted tube at various time periods of 5, 15, 30, 60, 120, 240, 480, 720, and 1440 min after the oral administration. The samples were then immediately transferred into heparin-containing microtubes and centrifuged at 10,000 rpm for 10 min to extract the plasma. The extracted plasma samples were transferred to other microtubes and stored at −20 °C until further analysis by HPLC.
Plasma (90 μL) was mixed with 10 μL of theophylline solution (1000 μg/mL in MeOH) as the internal standard and 100 μL of methanol, respectively. The samples (200 μL) were then centrifuged at 13,000 rpm for 10 min and the upper clear supernatant layer was drawn and injected into the HPLC system (20 μL) for the quantification of MTX. In addition, the blood samples drawn at pre-dose (0 h) were used to draw a six-point calibration plot. The Slope of the graph was linear with R^2 = 0.995 over the range of 25–2000 ng/mL. The mobile phase composition, flow rate, analytical column used, and UV wavelength of the HPLC method was similar to that described in Section 2.3. The pharmacokinetic (PK) parameters such as maximal plasma concentration (Cmax), time to reach Cmax (Tmax), were obtained from the plasma concentration vs. time plots. Moreover, the area under the plasma concentration vs. time curve (AUC0–∞) was calculated using the linear trapezoidal summation rule and elimination half-life (t1/2), and elimination rate constant (Kel) were obtained using non-compartmental model WinNonlin software (Pharsight Corp., Mountain View, CA, USA). Differences in the PK parameters were assessed with the one-way ANOVA test and a p value of less than 0.05 (p < 0.05) was considered statistically significant.

Data set [5] in a line: Photostability assessment. It counts as physicochemical. The conditions noted are these: powder, 20 days, 25 °C/60% RH, 1.2 million lux·hr. The procedure:
The free MTX powder and the prepared IC formulations were subjected to UV irradiation for a period of 20 days. The powdered samples were spread over the bottom surface of transparent glass vials and stored at 25 °C/60% RH in a photostability chamber (Model 6545-2; Caron, Marietta, OH, USA). There, the samples were exposed to a light source of 1.2 million lux·hr intensity. At scheduled time intervals, a few mg of the sample was drawn, and assayed for the drug content by HPLC method, as described above. At the end of the study period, the samples were physically inspected for any physical changes on the stability of MTX.

The subject of data set [6] is Caco-2 cells. The experiment in a line: MTT cytotoxicity assay. Type of data set: cell-based, human. The following applies: up to 200 µM, 24 h incubation. As to the method:
An MTT assay was used to assess the potential cytotoxic behavior of MTX and MTX/DM-β-CD on human intestinal epithelial cancer cells (Caco-2). The Caco-2 cells were grown in DMEM supplemented with 10% FBS, 1% v/v sodium pyruvate, L-glutamine, penicillin, and MEM non-essential amino acids. The cells (2 × 10^4 cells/well) were then seeded onto 96-well transwell plates and incubated at 37 °C with 5% CO2 for 24 h. New medium containing the tested formulations i.e., MTX and MTX/DM-β-CD (IC4), with varying concentrations, were added and incubated for 24 h. The culture medium was then aspirated, and the viability of the cells was determined by adding 20 μL/well of MTT solution to each 96-well plate and incubating for another 4 h. The formazan crystals were dissolved by adding 150 μL/well DMSO. The developed formazan was assayed at 570 nm, using a microplate reader with untreated cells serving as a control. All the tests were carried out in two microplates with six parallel wells each.

Data set [7] can be described thus: In vitro Caco-2 permeation experiment. It counts as in vitro ADME. The following applies: human, Caco-2 monolayer, 50 µg/mL MTX. As to the method: The in vitro permeability of MTX and MTX/DM-β-CD formulation was evaluated using Caco-2 cells (passage no 45) and performed like the previously reported method. The cells were seeded (5 × 10^5 cells/well) onto filter inserts from 12-well transwell plates and grown at 37 °C with 5% CO2 for 24 h. The cells were then cultured for three weeks, with the media being replaced on alternate days. Caco-2 cells with TEER ≥ 500 Ω·cm^2 were used in this experiment, which is indicative of adequate monolayer formation.
To evaluate the A to B transfer, the medium from each well was replaced with prewarmed HBSS (washing of monolayer) and maintained at 37 °C for 15 min. The HBSS solution on both sides of the cell monolayer was removed by decanting and aspiration from the lower end of the plate well. Then, 0.5 mL of HBSS (pH 7.4) medium containing 50 µg/mL of MTX alone or eqvt. concentration of MTX/DM-β-CD formulation was placed to the dosing compartment (A) and 1.5 mL of fresh HBSS in the receiving compartment (B). […] MTX was quantified at m/z 455.2 ⟶ 308.1 while berberine at m/z 336.1 ⟶ 320.0.
The apparent permeability coefficient (Papp, cm/s) was calculated as:(3) Papp=(dQ/dt)/(C0×A)
The efflux ratio (ER) was calculated as:(4) ER=Papp (B→A)/Papp (A→B) where, Papp (B → A) and Papp (A → B) represents the apparent permeability of the investigated formulations.
In general terms: Caco-2 cells form a polarised layer with tight junctions and transporters.

For data set [8] the following is noted: cited from earlier work.
For data set [9] the following is noted: for doses >40 mg/m^2; cited from earlier work.
Where [10] appears, read: male, Sprague-Dawley, rat, plasma.

For the compound `OC[C@H]1O[C@@H]2O[C@H]3[C@H](O)[C@@H](O)[C@@H](O[C@H]4[C@H](O)[C@@H](O)[C@@H](O[C@H]5[C@H](O)[C@@H](O)[C@@H](O[C@H]6[C@H](O)[C@@H](O)[C@@H](O[C@H]7[C@H](O)[C@@H](O)[C@@H](O[C@H]8[C@H](O)[C@@H](O)[C@@H](O[C@H]1[C@H](O)[C@H]2O)O[C@@H]8CO)O[C@@H]7CO)O[C@@H]6CO)O[C@@H]5CO)O[C@@H]4CO)O[C@@H]3CO` [β-CD, β-cyclodextrin], in data set [1], the “Stability Constant (Kα)” value came to 552.25 M⁻¹.
In the case of `CC(=O)O[C@@]12CO[C@@H]1C[C@H](O)[C@@]1(C)C(=O)[C@H](O)C3=C(C)[C@@H](OC(=O)[C@H](O)[C@@H](NC(=O)OC(C)(C)C)c4ccccc4)C[C@@](O)([C@@H](OC(=O)c4ccccc4)[C@H]21)C3(C)C` [docetaxel], the IC50 in the data set on Caco-2 cells [2] is 70 µM.
On to 2-hydroxylpropyl-β-CD [HP-β-CD], for which, in data set [1], the “Stability Constant (Kα)” value turned out to be 433.56 M⁻¹.
For the compound `COc1cccc2c1C(=O)c1c(O)c3c(c(O)c1C2=O)C[C@@](O)(C(=O)CO)C[C@@H]3O[C@H]1C[C@H](N)[C@H](O)[C@H](C)O1` [doxorubicin], in the data set with Caco-2 cells [2], the IC50 is 5 µM.
Take methyl-β-cyclodextrin [M-β-CD]: the “Stability Constant (Kα)” value in data set [1] was 574.48 M⁻¹.
The AUC is concentration integrated over time. One may read the Tmax as the time from dosing to the highest level. Broadly, the half-life is how long it takes for the measured level to halve. For orientation: Cmax means the peak of the concentration-time curve. The term Papp A→B denotes the apparent permeability from the apical to the basolateral side of a cell layer. With `CN(Cc1cnc2nc(N)nc(N)c2n1)c1ccc(C(=O)N[C@@H](CCC(=O)O)C(=O)O)cc1` [MTX, Methotrexate], in data set [3], the “Dx (10)” value came out at 3.60 ± 0.48 μm, the “Dx (50)” value worked out at 14.03 ± 2.97 μm and the “Dx (90)” value turned out to be 103.73 ± 12.13 μm. Also, in data set [4] (setting [10]), the area under the curve (AUC) came out at 1740 ± 295 ng·h/mL, the Tmax turned out to be 1.13 ± 0.23 h, the half-life was 5.4 ± 0.72 h and the k el was 3.61e-05 s⁻¹. For the same compound, the peak concentration (Cmax) in data set [4] worked out at 265.63 ± 57.05 ng/mL. Also, in data set [5], the “decrease in MTX concentration after UV irradiation” value amounted to 36.8 ± 1.7%. For the same compound, the “cytotoxicity against Caco-2 cells” value in the data set on Caco-2 cells [6] is “no substantial cytotoxicity”. In addition, in data set [7] (HBSS pH 7.4, 1 h, read-out: Papp A to B transport), the apical-to-basolateral permeability (Papp A→B) at 1 h, 50 µg/mL came out at 0.57 ± 0.14 ×10⁻⁶ cm/s. Also, the efflux ratio at 1 h, 50 µg/mL in data set [7] (HBSS pH 7.4, read-out: efflux ratio (B to A/A to B)) came to 8. In addition, in data set [8], the “C logP” value was 0.53. The bioavailability in [9] was ~ 18%.
Turning to `COCC1OC2OC3C(COC)OC(OC4C(COC)OC(OC5C(COC)OC(OC6C(COC)OC(OC7C(COC)OC(OC8C(COC)OC(OC1C(O)C2OC)C(OC)C8O)C(OC)C7O)C(OC)C6O)C(OC)C5O)C(OC)C4O)C(OC)C3O` (stereo not drawn) [DM-β-CD, heptakis (2,6-di-O-methyl)-β-cyclodextrin], the “Stability Constant (Kα)” value in data set [1] worked out at 3114.69 M⁻¹.
